The numbers were not newly measured in patent US20100278915A1, “COMPOSITIONS COMPRISING AN ANTIHISTAMINE, A[…] DE[…] EXTENDED RELEASE FORMULATIONS” (Atley Pharmaceuticals, Inc., priority 2009, published 2010), which cites them from elsewhere.

Where a name gives a salt, the structure may show the parent alone.

The conditions of data set [1]: in vivo.
The conditions of data set [2]: after a single oral dose.
The conditions of data set [3]: within 24 hours of dosing.

Turning to `CN(C)CCC(c1ccc(Cl)cc1)c1ccccn1` (stereo not shown) [Chlorpheniramine, Chlorpheniramine maleate], in data set [1], the “monodesmethyl and didesmethyl compounds excreted in the urine” value is “up to 26%”; the “renal elimination, share of total excretion” value is recorded as “approximately 50%”.

With `COc1ccc2c3c1O[C@H]1C(=O)CC[C@H]4[C@@H](C2)N(C)CC[C@]314` [Hydrocodone, hydrocodone], in data set [2], the “share of total excretion in the first 24 hours” value is listed as “About 70%”.

Consider `CN[C@@H](C)[C@@H](O)c1ccccc1` [Pseudoephedrine, pseudoephedrine], for which, in data set [3], the “dose excreted unchanged in urine” value is listed as “up to 90%”.
